Laboratory results reported in patent US20090012045A1, “Methods of Treating Cell Proliferative Disorders” (RIGEL PHARMACEUTICALS, INC., priority 2007, published 2009).

How the values were obtained:
Ret (h) = Ret (h) (Homo sapiens, UniProt P07949); experiment: RET kinase activity, [γ-33P-ATP] filter assay; assay type: biochemical
Method: RET kinase is pre-diluted to a 10× working concentration prior to addition into the assay. The composition of the dilution buffer is 20 mM MOPS pH 7.0, 1 mM EDTA, 0.1% p-mercaptoethanol, 0.01% Brij-35, 5% glycerol and 1 mg/ml BSA.
The reaction is initiated by the addition of the MgATP mix. After incubation for 40 minutes at room temperature, the reaction is stopped by the addition of 5 μL of a 3% phosphoric acid solution. 10 μL of the reaction is then spotted onto a P30 filtermat and washed three times for 5 minutes in 75 mM phosphoric acid and once in methanol prior to drying and scintillation counting.

Ret = molecular target: T1, Ret (Homo sapiens, UniProt P07949); experiment: Ret autophosphorylation, fluorescence polarization assay; assay type: biochemical; settings: 4 ng Ret, 5 μM ATP, 20 min; read-out: IC50 for inhibition of Ret autophosphorylation
T1 construct: purchased Upstate 14-570
T1 sequence (P07949 658-1114 limits assumed): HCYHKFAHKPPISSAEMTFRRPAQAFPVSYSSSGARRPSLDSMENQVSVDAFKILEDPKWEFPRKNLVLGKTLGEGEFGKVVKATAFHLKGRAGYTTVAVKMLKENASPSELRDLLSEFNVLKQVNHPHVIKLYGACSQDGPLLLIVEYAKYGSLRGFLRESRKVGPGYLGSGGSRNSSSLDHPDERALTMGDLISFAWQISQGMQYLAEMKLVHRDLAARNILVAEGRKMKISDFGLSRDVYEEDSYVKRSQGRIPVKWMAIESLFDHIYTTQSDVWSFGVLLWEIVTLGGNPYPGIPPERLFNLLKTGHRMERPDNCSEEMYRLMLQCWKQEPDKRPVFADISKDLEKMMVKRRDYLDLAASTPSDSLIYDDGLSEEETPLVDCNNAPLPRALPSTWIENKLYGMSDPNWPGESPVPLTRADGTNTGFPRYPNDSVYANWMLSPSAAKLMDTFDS
Method: Compounds were serially diluted in DMSO starting from 500× the desired final concentration and then diluted to 1% DMSO in kinase buffer (20 mM HEPES, pH 7.4, 5 mM MgCl2, 2 mM MnCl2, 1 mM DTT, 0.1 mg/mL acetylated BGG). Compound in 1% DMSO (0.2% DMSO final) was mixed with ATP in kinase buffer at room temperature.
Reactions were allowed to proceed at room temperature.
The plates were incubated for 30 minutes in the dark at room temperature and then read on a Polarion fluorescence polarization plate reader (Tecan).
Data were converted to amount of phosphopeptide present using a calibration curve generated by competition with the phosphopeptide competitor provided in the Tyrosine Kinase Assay Kit, Green (Invitrogen).

[1] = in vitro metabolism of prodrug to active drug; assay type: in vitro ADME; settings: rat plasma, rat hepatic and intestinal microsomal preparations
Source text: Although phosphate-containing prodrugs suitable for oral administration are of interest, skilled artisans will appreciate that prodrugs including phosphate-containing progroups R^p can be administered via other routes of administration, as phosphatases are distributed throughout the body. […] Thus, the only requirement is that the particular phosphate-containing progroup R^p selected should be removable under the conditions of intended use.

[2] = in vivo metabolism of prodrug to active drug
Source text: It has recently been discovered that a phosphate-containing prodrug according to the structure illustrated below (Compound P-1):
19, 2006 (US2006/0211657 A1), at paragraphs 134-142 and 146 of the printed publication.

[3] = compound concentration 0.02 micromoles
[4] = compound concentration 0.2 micromoles
[5] = compound concentration 1 micromoles
[6] = compound concentration 0.03 micromoles
[7] = compound concentration 0.3 micromoles

Ret (h), sequence (P07949 29-1114): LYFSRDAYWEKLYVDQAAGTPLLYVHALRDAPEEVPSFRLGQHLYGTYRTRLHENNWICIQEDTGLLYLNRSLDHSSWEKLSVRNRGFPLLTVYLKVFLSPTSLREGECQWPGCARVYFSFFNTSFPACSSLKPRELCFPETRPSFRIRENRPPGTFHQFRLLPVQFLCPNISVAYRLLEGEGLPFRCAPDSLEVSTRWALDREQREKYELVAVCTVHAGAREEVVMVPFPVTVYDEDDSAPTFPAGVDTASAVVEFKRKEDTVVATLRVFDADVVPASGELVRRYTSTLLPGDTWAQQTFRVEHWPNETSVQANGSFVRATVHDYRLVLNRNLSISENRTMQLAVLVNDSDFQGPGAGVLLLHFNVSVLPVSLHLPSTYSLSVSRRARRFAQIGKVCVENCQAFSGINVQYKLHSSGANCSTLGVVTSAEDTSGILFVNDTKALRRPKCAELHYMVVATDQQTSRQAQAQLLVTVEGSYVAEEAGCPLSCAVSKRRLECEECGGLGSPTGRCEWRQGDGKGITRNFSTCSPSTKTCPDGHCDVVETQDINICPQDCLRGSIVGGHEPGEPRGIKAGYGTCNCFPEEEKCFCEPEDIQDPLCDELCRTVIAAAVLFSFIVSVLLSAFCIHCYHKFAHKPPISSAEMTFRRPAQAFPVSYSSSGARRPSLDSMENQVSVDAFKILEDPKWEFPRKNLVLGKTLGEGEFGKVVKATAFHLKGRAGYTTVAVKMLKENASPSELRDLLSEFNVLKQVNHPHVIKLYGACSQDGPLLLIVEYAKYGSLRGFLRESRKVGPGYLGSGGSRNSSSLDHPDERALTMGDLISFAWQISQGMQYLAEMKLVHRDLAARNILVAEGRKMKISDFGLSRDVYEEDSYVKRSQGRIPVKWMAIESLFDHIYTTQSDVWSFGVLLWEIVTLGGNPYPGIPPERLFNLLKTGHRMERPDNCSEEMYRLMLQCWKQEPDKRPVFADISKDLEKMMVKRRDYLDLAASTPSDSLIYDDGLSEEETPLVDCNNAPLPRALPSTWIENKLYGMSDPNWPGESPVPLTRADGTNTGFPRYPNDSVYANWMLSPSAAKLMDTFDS

| Compound | RET kinase autophosphorylation activity as a percentage of control RET kinase activity (Ret (h); [4]) [%] | RET kinase autophosphorylation activity as a percentage of control RET kinase activity (Ret (h); [5]) [%] | IC50 (Ret) [nM] | other results |
| --- | --- | --- | --- | --- |
| Cc1cc(Nc2cc(N3CCN(C)CC3)nc(Sc3ccc(NC(=O)C4CC4)cc3)n2)[nH]n1 [Compound 6, N-(4-(4-(3-methyl-1H-pyrazol-5-ylamino)-6-(4-methylpiperazin-1-yl)pyrimidin-2-ylthio)phenyl)cyclopropanecarboxamide] | 26 | 4 | – | RET kinase autophosphorylation activity as a percentage of control RET kinase activity (Ret (h); [3]): 78% |
| Cc1ccc(Nc2ncc(F)c(Nc3ccc(OCC#N)cc3)n2)cc1S(N)(=O)=O [Compound 10] | 19 | 1 | – | – |
| Cc1noc(COc2ccc(Nc3nc(Nc4cccc(O)c4)ncc3F)cc2)n1 [Compound 5, 3-(5-fluoro-4-(4-((3-methyl-1,2,4-oxadiazol-5-yl)methoxy)phenylamino)pyrimidin-2-ylamino)phenol] | – | 0 | – | RET kinase autophosphorylation activity as a percentage of control RET kinase activity (Ret (h); compound concentration 0.01 micromoles): 0%; RET kinase autophosphorylation activity as a percentage of control RET kinase activity (Ret (h); [6]): 0%; RET kinase autophosphorylation activity as a percentage of control RET kinase activity (Ret (h); compound concentration 0.1 micromoles): 0%; RET kinase autophosphorylation activity as a percentage of control RET kinase activity (Ret (h); [7]): 0% |
| Cc1cc(Nc2ncc(F)c(NC3CCCC3C(N)=O)n2)ccc1N1CCN(C)CC1 (centres unmarked) [Compound 7, 2-(5-fluoro-2-(3-methyl-4-(4-methylpiperazin-1-yl)phenylamino)pyrimidin-4-ylamino)cyclo-pentanecarboxamide] | 34 | 2 | – | RET kinase autophosphorylation activity as a percentage of control RET kinase activity (Ret (h); [3]): 74% |
| 2-(3-(4-(2,2-difluoro-3-oxo-3,4-dihydro-2H-pyrido[3,2-b][1,4]oxazin-6-ylamino)-5-fluoropyrimidin-2-ylamino)phenoxy)-N-methylacetamide [Compound 2] | – | 0 | 11.8 | RET kinase autophosphorylation activity as a percentage of control RET kinase activity (Ret (h); [6]): 0%; RET kinase autophosphorylation activity as a percentage of control RET kinase activity (Ret (h); compound concentration 3 micromoles): 0% |
| COc1cc(Nc2ncc(F)c(Nc3ccc4c(n3)N(COP(=O)(O)O)C(=O)C(C)(C)O4)n2)cc(OC)c1OC [Compound 9, (6-(5-fluoro-2-(3,4,5-trimethoxyphenylamino)pyrimidin-4-ylamino)-2,2-dimethyl-3-oxo-2H-pyrido[3,2-b][1,4]oxazin-4(3H)-yl)methyldihydrogenphosphate] | – | 11 | – | metabolism of prodrug to the active drug Compound 1 [1]: metabolize to the active drug Compound 1; metabolism of prodrug to the active drug Compound 1 [2]: metabolizes in vivo to the corresponding active 2,4-pyrimidinediamine compound; RET kinase autophosphorylation activity as a percentage of control RET kinase activity (Ret (h); [7]): 47% |
| COc1cc(Nc2ncc(F)c(Nc3ccc4c(n3)NC(=O)C(C)(C)O4)n2)cc(O)c1OC [Compound 4, 6-(5-fluoro-2-(3-hydroxy-4,5-dimethoxy-phenylamino)pyrimidin-4-ylamino)-2,2-dimethyl-2H-pyrido[3,2-b][1,4]oxazin-3(4H)-one] | – | – | 7.3 | – |
| Cc1nc2ccc(Nc3ncc(F)c(Nc4ccc5c(c4)NC(=O)C(C)(C)S5)n3)cc2[nH]1 [Compound 3, 6-(5-fluoro-2-(2-methyl-1H-benzo[d]imidazol-6-ylamino)pyrimidin-4-ylamino)-2,3-dimethyl-2H-benzo[b][1,4]thiazin-3(4H)-one] | – | – | 16.5 | – |
